Assay results from patent publication US9073899B2, “Solid forms of dabigatran etexilate mesylate and processes for their preparation” (ESTEVE QUÍMICA, S.A., priority 2012, dated 2015).
Entries after “also recorded” stand apart in the source; their conditions may differ. Counter-ions that a name gives are not always drawn.

Columns and labels:
Type in all cases: physicochemical
[1] = Solubility in acetonitrile (50 mg added to 1 mL with stirring); conditions: for solubility observation (in words): 24° C. / room temperature (20-25° C.)
Method: (§1) Dabigatran etexilate mesylate, Form I, 50 mg, was added to acetonitrile (1 mL) with stirring, at 24° C. The product was not soluble under these conditions. The mixture was stirred for 48 hours, filtered and analysed to be Form A of dabigatran etexilate mesylate as determined by powder XRD.
(§2) The solubility of the amorphous form is therefore >50 mg/mL. After approximately 5 minutes a solid crystallized. The mixture was stirred for 48 hours, filtered and analysed to be Form A of dabigatran etexilate mesylate as determined by powder XRD.
(§3) Dabigatran etexilate mesylate, Form A, 50 mg, was added to acetonitrile (1 mL) with stirring, at 24° C. The product was not soluble under these conditions. The mixture was stirred for 48 hours, filtered and analysed to be Form A of dabigatran etexilate mesylate as determined by powder XRD.

[2] = Stability assay: slurrying in acetonitrile, solid form by powder XRD; conditions: acetonitrile 1 mL, 50 mg, 24° C. (room temperature), stirred 48 hours
Method: (§4) Powder diffraction patterns were acquired using a PANalytical, X'Pert diffractometer using CuKalpha-radiation. The system was configured in theta-theta, transmission geometry equipped with a focusing X-ray mirror and PIXcel detector.
as §1, §2, §3

[3] = Solvent mediated transformation of mixtures of forms in 2-propanol, solid form by powder XRD; conditions: 2-propanol 0.6 mL, ambient temperature, orbital agitator
Method: as §4
(§5) Dabigatran etexilate mesylate, a mixture of Form I, 17 mg and Form A, 15 mg, was suspended in 2-propanol (0.6 mL) and the mixture agitated at ambient temperature using an orbital agitator for 64 hours. The mixture was filtered, dried under vacuum and analysed to be purely Form A of dabigatran etexilate mesylate as determined by powder XRD.
as §5, with “II, 10” for “I, 17”, “7 days.” for “64 hours.”

| Structure (SMILES) | solid form after slurrying (powder XRD) [2] | solubility observation (in words) ([1]; 50 mg in 1 mL acetonitrile) | also measured |
| --- | --- | --- | --- |
| CCCCCCOC(=O)NC(=N)c1ccc(NCc2nc3cc(C(=O)N(CCC(=O)OCC)c4ccccn4)ccc3n2C)cc1 [amorphous dabigatran etexilate mesylate, dabigatran etexilate mesylate] | Form A | complete dissolution almost immediately; also recorded: completely dissolved | time until a solid crystallized from the acetonitrile solution ([1]; 50 mg in 1 mL acetonitrile, 24° C., after complete dissolution): approximately 5 minutes; solubility ([1]; organic solvent or mixture, thermodynamic from solid, acetonitrile, 24° C., 50 mg in 1 mL): > 50 mg/mL |
| CCCCCCOC(=O)/N=C(\N)c1ccc(NCc2nc3cc(C(=O)N(CCC(=O)OCC)c4ccccn4)ccc3n2C)cc1 [mixture of Form II and Form A, dabigatran etexilate mesylate] |  |  | solid form after slurrying mixture of forms (powder XRD) ([3]; 7 days): purely Form A; also recorded: converted entirely into Form A |
| CCCCCCOC(=O)/N=C(\N)c1ccc(NCc2nc3cc(C(=O)N(CCC(=O)OCC)c4ccccn4)ccc3n2C)cc1 [mixture of Form I and Form A, dabigatran etexilate mesylate] |  |  | solid form after slurrying mixture of forms (powder XRD) ([3]; 64 hours): purely Form A; also recorded: converted entirely into Form A |

The next lines start with results.

| solid form after slurrying (powder XRD) [2] | Structure (SMILES) | solubility observation (in words) ([1]; 50 mg in 1 mL acetonitrile) | also measured |
| --- | --- | --- | --- |
| converted entirely into Form A | CCCCCCOC(=O)NC(=N)c1ccc(NCc2nc3cc(C(=O)N(CCC(=O)OCC)c4ccccn4)ccc3n2C)cc1 [dabigatran etexilate mesylate Form I, dabigatran etexilate mesylate] | not soluble; also recorded: at least partly insoluble |  |
| Form A; also recorded: stable | CCCCCCOC(=O)NC(=N)c1ccc(NCc2nc3cc(C(=O)N(CCC(=O)OCC)c4ccccn4)ccc3n2C)cc1 [dabigatran etexilate mesylate Form A, dabigatran etexilate mesylate] | not soluble; also recorded: at least partly insoluble |  |
